Literature values, collected in PubChem BioAssay AID1259409 (Chemical Carcinogenesis Research Information System (CCRIS), 2018).

Tested on: rodent chemically induced tumor inhibition, incidence and multiplicity
Experiment: CCRIS tumor inhibitor studies
Conditions: Route [Inhibitor]: ORAL, Species: RAT, Promoter: NONE USED

CC1=C(/C=C/C(C)=C/C=C/C(C)=C/C(=O)NCCO)C(C)(C)CCC1
tumour outcome (control, treated, inhibition, significance) (Carcinogen: 1,2-DIMETHYLHYDRAZINE, 540-73-8, Dose [Inhibitor]: 2 MMOL/KG DIET DAILY STARTING 12 D AFTER CARCINOGEN TREATMENT THROUGH ABOUT 8 MO AFTER CARCINOGEN DOSE (STUDY DURATION:, Strain/Sex: F344/MALE, Target Tissue: Type of Lesion: COLON: ADENOCARCINOMA, Dose [Carcinogen]: 150 MG/KG BW ONCE): 10/39 (26%), 5/30 (17%), 35%, not significant | tumour outcome (control, treated, inhibition, significance) (Carcinogen: 1,2-DIMETHYLHYDRAZINE, 540-73-8, Dose [Inhibitor]: 2 MMOL/KG DIET DAILY STARTING 12 D AFTER CARCINOGEN TREATMENT THROUGH ABOUT 8 MO AFTER CARCINOGEN DOSE (STUDY DURATION:, Strain/Sex: F344/MALE, Target Tissue: Type of Lesion: COLON: ADENOMA, Dose [Carcinogen]: 150 MG/KG BW ONCE): 23/39 (59%), 11/30 (37%), 37%, not significant | tumour outcome (control, treated, inhibition, significance) (Carcinogen: L-AZASERINE, 115-02-6, Dose [Inhibitor]: 1 MMOL/KG DIET DAILY FOR 358 D STARTING 1 WK AFTER COMPLETION OF CARCINOGEN TREATMENT (STUDY DURATION: 66 WK), Strain/Sex: WISTAR-LEWIS/FEMALE, Target Tissue: Type of Lesion: PANCREAS: ADENOMA, Dose [Carcinogen]: 10 MG/KG BW 1/WK FOR 15 WK): 50%, 25%, 50%, not significant | tumour outcome (control, treated, inhibition, significance) (Carcinogen: L-AZASERINE, 115-02-6, Dose [Inhibitor]: 1 MMOL/KG DIET DAILY FOR 358 D STARTING 1 WK AFTER COMPLETION OF CARCINOGEN TREATMENT (STUDY DURATION: 66 WK), Strain/Sex: WISTAR-LEWIS/FEMALE, Target Tissue: Type of Lesion: PANCREAS: CARCINOMA IN SITU, Dose [Carcinogen]: 10 MG/KG BW 1/WK FOR 15 WK): 8%, 25%, -213%, not calculated | tumour outcome (control, treated, inhibition, significance) (Carcinogen: L-AZASERINE, 115-02-6, Dose [Inhibitor]: 1 MMOL/KG DIET DAILY FOR 358 D STARTING 1 WK AFTER COMPLETION OF CARCINOGEN TREATMENT (STUDY DURATION: 66 WK), Strain/Sex: WISTAR-LEWIS/FEMALE, Target Tissue: Type of Lesion: PANCREAS: CARCINOMA, Dose [Carcinogen]: 10 MG/KG BW 1/WK FOR 15 WK): 13%, 0%, 100%, not significant | tumour outcome (control, treated, inhibition, significance) (Carcinogen: L-AZASERINE, 115-02-6, Dose [Inhibitor]: 1 MMOL/KG DIET DAILY FOR 358 D STARTING 1 WK AFTER COMPLETION OF CARCINOGEN TREATMENT (STUDY DURATION: 66 WK), Strain/Sex: WISTAR-LEWIS/FEMALE, Target Tissue: Type of Lesion: PANCREAS: NEOPLASM, Dose [Carcinogen]: 10 MG/KG BW 1/WK FOR 15 WK): 71%, 50%, 30%, p 0.14 | tumour outcome (control, treated, inhibition, significance) (Carcinogen: L-AZASERINE, 115-02-6, Dose [Inhibitor]: 1 MMOL/KG DIET DAILY FOR 358 D STARTING 1 WK AFTER COMPLETION OF CARCINOGEN TREATMENT (STUDY DURATION: 66 WK), Strain/Sex: WISTAR-LEWIS/MALE, Target Tissue: Type of Lesion: PANCREAS: ADENOMA, Dose [Carcinogen]: 10 MG/KG BW 1/WK FOR 15 WK): 25%, 56%, -124%, not calculated | tumour outcome (control, treated, inhibition, significance) (Carcinogen: L-AZASERINE, 115-02-6, Dose [Inhibitor]: 1 MMOL/KG DIET DAILY FOR 358 D STARTING 1 WK AFTER COMPLETION OF CARCINOGEN TREATMENT (STUDY DURATION: 66 WK), Strain/Sex: WISTAR-LEWIS/MALE, Target Tissue: Type of Lesion: PANCREAS: CARCINOMA IN SITU, Dose [Carcinogen]: 10 MG/KG BW 1/WK FOR 15 WK): 29%, 28%, 3%, not significant | tumour outcome (control, treated, inhibition, significance) (Carcinogen: L-AZASERINE, 115-02-6, Dose [Inhibitor]: 1 MMOL/KG DIET DAILY FOR 358 D STARTING 1 WK AFTER COMPLETION OF CARCINOGEN TREATMENT (STUDY DURATION: 66 WK), Strain/Sex: WISTAR-LEWIS/MALE, Target Tissue: Type of Lesion: PANCREAS: CARCINOMA, Dose [Carcinogen]: 10 MG/KG BW 1/WK FOR 15 WK): 46%, 8%, 83%, p<0.05 | tumour outcome (control, treated, inhibition, significance) (Carcinogen: L-AZASERINE, 115-02-6, Dose [Inhibitor]: 1 MMOL/KG DIET DAILY FOR 358 D STARTING 1 WK AFTER COMPLETION OF CARCINOGEN TREATMENT (STUDY DURATION: 66 WK), Strain/Sex: WISTAR-LEWIS/MALE, Target Tissue: Type of Lesion: PANCREAS: NEOPLASM, Dose [Carcinogen]: 10 MG/KG BW 1/WK FOR 15 WK): 100%, 92%, 8%, not significant | tumour outcome (control, treated, inhibition, significance) (Carcinogen: L-AZASERINE, 115-02-6, Dose [Inhibitor]: 2.0 MMOL/KG DIET DAILY FOR 336 D OUT OF 358 D STARTING 1 WK AFTER COMPLETION OF CARCINOGEN TREATMENT (STUDY DURATION: 66, Strain/Sex: WISTAR-LEWIS/FEMALE, Target Tissue: Type of Lesion: PANCREAS: NEOPLASM (ADENOMA, CARCINOMA IN SITU, CARCINOMA), Dose [Carcinogen]: 10 MG/KG BW 1/WK FOR 15 WK STARTING 15 WK PRIOR TO AGENT TREATMENT): ?/24 (71%), ?/24 (25%), 65%, p<0.05
